Test results taken from patent US20060223729A1, “Photodynamic inactivation of bacterial spores” (priority 2003, published 2006).

Key:
B. cereus spores = experiment: Photodynamic inactivation (PDI) of B. cereus spores, colony-forming units; type: cell-based, B. cereus (ATCC14579); conditions: for photodynamic killing of spores: 100 mW/cm^2 appropriate wavelength light, 0 to 32 J/cm^2 (FIG. 5, FIG. 8)
Procedure: (§1) The bacteria studied in the following examples were B. atrophaeus (ATCC 9372), B. cereus (ATCC14579), B. thuringiensis (ATCC 33740) and B. subtilis (ATCC 6051). Growing bacterial cells were cultivated in brain-heart infusion (BHI) broth at 37° C. Aliquots of the suspension (10^8/mL) were stored at −80° C. and then used for the experiments.
(§2) For initial experiments spores of B. atrophaeus and B. cereus were purchased from SGM Biotech, Inc (Bozeman, Mont., USA). For subsequent experiments spores of all species were prepared in the laboratory using sporulation broth for B. atrophaeus and B. subtilis, or sporulation agar (Caipo et al., 2002; Nicholson & Setlow, 1990) for B. cereus and B. thuringiensis. The sporulation medium consisted of 16.0 g nutrient broth (Difco), 2.0 g KCl, 0.5 g MgSO4; 17 g of agar. The pH of the medium was adjusted to 7, then autoclaved and cooled. After cooling 1 ml of 1M […], 1 ml of 0.1 M MnCl2.4H2O, 1 ml of 1 mM FeSO4 and 2 ml 50% glucose were added. For spore purification the mixture of spores and cells was centrifuged at 1300 g for 20 min, washed with SX volume 1 M KCl/0.5 M NaCl, rinsed with sterile deionized water, then washed with 1 M NaCl, and rinsed with sterile deionized water again. Lysozyme (50 μg/mL) was added in the presence of buffer (5× volume Tris Cl, 0.05 M, pH 7 2), and incubated with constant stirring at 4° C. overnight. Lysozyme was removed by centrifuging 8 times (at 1300 g) and washing with sterile deionized water. Spores were frozen with 10% glycerol and stored until use. To avoid germination spores were used immediately after defrosting.
(§3) As photosensitizers Rose Bengal, Toluidine Blue O (TBO), Methylene Blue, New Methylene Blue N zinc chloride double salt (NMB), 1,9-Dimethylmethylene Blue Chloride (Sigma-Aldrich—DMMB), Azure A, Azure B, Azure C, methylene violet 3RAX, safranine O, and malachite green, were used. Stock solutions were prepared in water and stored at 4° C. in the dark before use. The concentrations of stock solution were 2 mM.
(§4) When Rose Bengal was used, irradiation was performed with an argon laser at 514 nm. A diode laser with wavelength 670 nm was used for experiments with Methylene Blue and 1,9-Dimethylmethylene Blue Chloride. Diode laser with wavelength 635 nm was used for Toluidine Blue O and New Methylene Blue N. For other dyes either a turnable argon ion pumped dye laser or a 514 nm argon ion laser was used.
(§5) Suspensions of spores or bacteria (10^8/mL, 10^7/mL, 10^6/mL) were incubated with photosensitizers in the dark at room temperature. Incubation time was ranged from 1 min to 24 h and the photosensitizer concentrations varied form 10 μM to 1 mM. The cell suspensions were centrifuged at 20800 g and then washed several times with sterile PBS. The bacterial suspensions were placed on two well (concavities hanging drop) slides (Fisher Scientific) and irradiated with appropriate laser at room temperature. Fluences ranged from 0 to 300 J/cm^2. Fluence rates varied from 0 to 500 mW/cm^2. During irradiation aliquots of 20 μL were taken to determine the colony-forming units. The contents of the wells were mixed before sampling. The aliquots were serially diluted 10-fold in PBS to give dilutions of 10^−1-10^−6 times the original concentrations and were streaked horizontally on square BHI agar plates as described by (Jett et al., 1997). Plates were incubated at 37° C. overnight.
(§6) Two types of control conditions were used: irradiation in the absence of photosensitizers and incubation with photosensitizers in the dark.

B. thuringiensis spores = experiment: Photodynamic inactivation (PDI) of B. thuringiensis spores, colony-forming units; type: cell-based, B. thuringiensis (ATCC 33740); conditions: 100 μM, 1 hour, 100 mW/cm^2 appropriate wavelength light, 0 to 32 J/cm^2 (FIG. 9, FIG. 10)
Procedure: as §1, §2, §3, §4, §5, §6

[1] = test system: B. subtilis vegetative cells; experiment: Photoinactivation of B. subtilis vegetative cells; type: cell-based, B. subtilis (ATCC 6051); conditions: 10(7)/mL, 3 hours at 37° C., 100 mW/cm^2 635-nm light (FIG. 13)
Procedure: as §1
as §5, with “overnight. […]” for “overnight.”

B. subtilis spores = experiment: Photodynamic inactivation (PDI) of B. subtilis spores, colony-forming units; type: cell-based, B. subtilis (ATCC 6051); conditions: needs ten times the dye and six times the light of B. cereus and B. thuringiensis; 100 mW/cm^2 635-nm light (FIG. 3)
Procedure: as §1
as §2, with “Lysozyme was removed by centrifuging 8 times (at 1300 g) and washing with sterile deionized water. Spores were frozen with 10% glycerol and stored until use. To avoid germination spores were used immediately after defrosting.” left out

[2] = test system: B. cereus vegetative cells; experiment: Photoinactivation of B. cereus vegetative cells; type: cell-based, B. cereus (ATCC14579); conditions: 10(7)/mL, 3 hours at 37° C., 100 mW/cm^2 635-nm light (FIG. 13)
Procedure: as §1
as §5, with “overnight. […]” for “overnight.”

Row | Compound | photodynamic killing of spores (B. cereus spores; 100 μM, 1 hour) | photodynamic killing of spores (B. thuringiensis spores) | other results
1 | CCN(CC)c1ccc2nc3ccc(N)cc3[n+](-c3ccccc3)c2c1.[Cl-] [methylene violet 3RAX] | effective | – | –
2 | Cc1cc(N(C)C)cc2[s+]c3cc(N(C)C)cc(C)c3nc12.[Cl-] [DMMB, 1,9-Dimethylmethylene Blue Chloride] | – | effective | effect of incubation time on effectiveness of killing (B. cereus spores; 50 μM DMMB, 1 minute to 24 hours incubation, 670 nm light (FIG. 7)): effectiveness of killing increases with increasing incubation time; killing of spores in PDI (B. cereus spores; DMMB, 670 nm light (FIG. 7)): effective
3 | CN(C)c1ccc2nc3ccc(=[N+](C)C)cc-3sc2c1 [methylene blue, Methylene Blue] | effective | – | –
4 | Cc1cc2nc3ccc(N(C)C)cc3[s+]c2cc1N.[Cl-] [TBO, Toluidine Blue O] | – | effective | sensitivity of vegetative cells to PDI [1]: sensitive to PDI; killing of spores (B. subtilis spores): more than 99.9%; killing of spores as a function of concentration and light fluence (B. cereus spores; 10 μM, 100 μM or 1 mM, 10 minutes, 100 mW/cm^2 635-nm light (FIG. 2)): improved, depending on both TBO concentration and light fluence; most effective incubation period (B. cereus spores; 50 μM TBO (FIG. 6)): ≥ 3 h; effect of incubation time on effectiveness of killing (B. cereus spores; 50 μM TBO, 1 minute to 24 hours incubation (FIG. 6)): effectiveness of killing increases with increasing incubation time; spores killed (B. cereus spores; 100 μM, 10 minutes incubation, 100 mW/cm^2 635-nm light (FIG. 1)): greater than 99.9%; killing of spores at the first lowest light dose tested (B. cereus spores; 1 mM dose, 10 minutes, 100 mW/cm^2 635-nm light (FIG. 2)): complete killing; dark toxicity to spores (B. cereus spores; 1 mM dose, 10 minutes, no light (FIG. 2)): significant dark toxicity; sensitivity of vegetative cells to PDI [2]: sensitive to PDI
5 | CNc1ccc2nc3ccc(=[N+](C)C)cc-3sc2c1.[Cl-] [Azure B] | effective | effective | –
6 | New Methylene Blue N zinc chloride double salt [NMB] | effective | effective | –
7 | CNc1ccc2nc3ccc(N)cc3[s+]c2c1.[Cl-] [Azure C] | effective | effective | rank of potency among the dyes of FIG. 5 (B. cereus spores; 100 μM, 1 hour, 100 mW/cm^2 (FIG. 5)): most potent
8 | CN(C)c1ccc(C(=C2C=CC(=[N+](C)C)C=C2)c2ccccc2)cc1 [malachite green] | effective | – | –
9 | Cc1cc2nc3cc(C)c(N)cc3[n+](-c3ccccc3)c2cc1N.[Cl-] [safranin O, safranine O] | effective | – | –
10 | CN(C)c1ccc2nc3ccc(N)cc3[s+]c2c1.[Cl-] [Azure A] | effective | effective | –
